# Results from article PMC11231610, “Fatty acid binding to the human transport proteins FABP3, FABP4, and FABP5 from a Ligand’s perspective” (The Journal of Biological Chemistry, 2024).
# “And” between values parts separate entries of the source, which are not always exact repeats. Equal values may be shown once. Read-outs that look alike come from different tables or passages of the source.
# Assays:
# Assay type in all cases: binding
# FABP3 = target: T1, FABP3 (Homo sapiens, UniProt P05413); assay: CW EPR spectra and spectral simulations of spin-probed fatty acids with FABP3
# T1 construct: purchased Sigma Aldrich
# T1 sequence (P05413 whole entry): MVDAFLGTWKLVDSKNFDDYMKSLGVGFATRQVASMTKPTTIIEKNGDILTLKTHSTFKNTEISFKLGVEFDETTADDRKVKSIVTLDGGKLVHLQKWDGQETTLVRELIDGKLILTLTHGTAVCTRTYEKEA
# Description: (§1) For a more in-depth view of the binding mechanism, CW EPR spectra of 5/16-DSA with concentration series of the FABPs were measured and simulated. […] Equal concentrations of 20 μM of each spin probe (5- and 16-DSA) were mixed with FABP concentrations of 0 to 200 μM, increasing the resulting ligand/protein ratio in the samples stepwise from 1/0 to 1/10.
# (§2) To analyze the spectra quantitatively, subsequent EPR spectral simulations were performed (Fig. 2, B and C). […] For a better understanding, a first interpretation of these components is given at this point. The rotational dynamics are thought to be indirectly proportional to the strength of intermolecular interactions between fatty acid and FABP. Therefore, they are indicative of the binding state of the fatty acids. Higher rotational correlation times signalize lower ligand dynamics and stronger interactions with the protein. […] This exchange broadening can only occur if radicals are located very close distance each other, colliding with each other, leading to partial overlap of spin-bearing orbitals.
# (§3) The fractions (weights) Φx of the spectral components were extracted from the EPR simulations of the concentration series and were used to calculate the concentrations of all components with Eq (1). in Figure 3. This was performed for the intermediately and strongly bound components, as well as for their sum, called totally bound 5/16-DSA, to construct binding curves for all FABPs and spin probes. […] Different fit functions were applied to the curves for a better qualitative and quantitative analysis.
# FABP4 = target: T2, FABP4 (Homo sapiens, UniProt P15090); assay: CW EPR spectra and spectral simulations of spin-probed fatty acids with FABP4; conditions: 37 °C
# T2 construct: purchased Sigma Aldrich
# T2 sequence (P15090 whole entry): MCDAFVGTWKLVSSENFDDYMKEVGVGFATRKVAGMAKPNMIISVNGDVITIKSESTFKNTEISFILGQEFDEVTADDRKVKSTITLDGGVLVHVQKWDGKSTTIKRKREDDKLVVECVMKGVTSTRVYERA
# Description: as §1, §2, §3
# FABP5 [1] = target: T3, FABP5 (Homo sapiens, UniProt Q01469); assay: CW EPR spectra and spectral simulations of spin-probed fatty acids with FABP5
# T3 construct: purchased Sigma Aldrich
# T3 sequence (Q01469 whole entry): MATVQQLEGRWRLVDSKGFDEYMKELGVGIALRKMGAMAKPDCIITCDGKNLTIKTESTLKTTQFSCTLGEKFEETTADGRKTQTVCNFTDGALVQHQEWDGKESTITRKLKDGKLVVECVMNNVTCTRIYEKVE
# Description: as §1, §2, §3
# FABP5 [2] = target: T3, FABP5; assay: DHA displacement of 16-DSA from FABP5 by CW EPR; conditions: FABP5/16-DSA/DHA up to 20/20/100
# Excerpt: In a second addition during revision, we were curious about the question of whether our model ligands that bind with medium affinity to the FABP binding pocket will be displaced when we add a native ligand with higher affinity and whether we could detect this displacement with our CW EPR setup. The native ligand DHA was chosen for this displacement analysis since it is well-known to bind with high affinity to FABP5 ([26]). DHA was pre-dissolved in ethanol, diluted into buffer, and mixed with FABP5 and 16-DSA. […] Samples with FABP5/16-DSA/DHA ratios 20/20/0, 20/20/5, 20/20/10, 20/20/20, 20/20/50, and 20/20/100 were prepared with 5 min incubation time in between 16-DSA and DHA addition. […] We assume that the well-known high binding affinity of DHA refers to the state of strong binding within the pocket. […] Instead, a dynamic exchange of ligands seems to occur, as we consistently observe it with albumins from different species. However, this part opens the way to other future competitive binding assays via CW EPR spectroscopy, e.g., with pharmaceuticals that bind to FABPs.
# CW EPR spectroscopic measurements were performed at X-band frequencies (∼9.4 GHz) with a benchtop spectrometer Magnettech MS-5000 (Freiberg Instruments GmbH, now Bruker Biospin). The samples were prepared in low-binding PCR tubes (250 μl). Protein and 5/16-DSA solutions were mixed with HEPES/NaCl buffer at pH 7.5, to obtain samples with a constant 5/16-DSA concentration of 20 μM and varying FABP concentrations of 200, 100, 50, 35, 25, 20, 15, 10 and 5 μM. After an incubation time of 20 min, the samples were transferred into glass capillaries, which were sealed with ‘Critoseal’. At first, solutions with 20 μM of 5/16-DSA were measured as references at 37 °C. The concentration series of FABP with 20 μM 5/16-DSA were measured at 37 °C, directly after preparation. Afterward, the sample capillaries were stored at 4 °C, and subsequent temperature-dependent measurements were performed. […]
# [3] = 37 °C, 20 μM spin probe, EPR binding curve, read-out: KD,T,75′ (fit), apparent KD read at 75% totally bound
# [4] = Fig. 2B, 20 μM 5-DSA with 100 μM FABP3
# [5] = Hill fit of EPR binding curve, totally bound, 37 °C
# [6] = Hill fit, totally bound (T), y = bound 5/16-DSA
# [7] = read-out: KD,T,50′ (fit), apparent KD read at 50% totally bound, 37 °C, 20 μM spin probe, EPR binding curve
smiles,measurement,setting,value
"CCCCCCCCCCCCCC1(CCCC(=O)O)OCC(C)(C)N1[O] (stereo not shown) [5-DSA, 5-DOXYL stearic acid]",Kd,"FABP3; 37 °C, 20 μM FABP3, 20 μM spin probe, read-out: KD,T,20μM (calculated, totally bound)",820 ± 650 nM
same,Kd,FABP3; [3],17400 ± 200 nM
same,Kd,"FABP3; 37 °C, 50 μM FABP3, 20 μM spin probe, read-out: KD,T,50μM (calculated, totally bound)",2440 ± 1870 nM
same,"ΔGF−I,100μM (free to intermediately bound)","FABP3; 37 °C, 100 μM FABP3",-28.6 ± 0.9 kJ/mol
same,"ΔGF−S,100μM (free to strongly bound)","FABP3; 37 °C, 100 μM FABP3",-18.4 ± 0.2 kJ/mol
same,"ΔGF−T,100μM (free to totally bound)","FABP3; 37 °C, 100 μM FABP3",-33.8 ± 3.4 kJ/mol
same,"ΔGI−S,100μM (intermediately to strongly bound)","FABP3; 37 °C, 100 μM FABP3",5.3 ± 0.3 kJ/mol
same,Kd,"FABP3; 37 °C, 100 μM FABP3, 20 μM spin probe, read-out: KD,T,100μM (calculated, totally bound)",2060 ± 2680 nM
same,"aiso, component (1) free","FABP3; 37 °C, EPR simulation",44.1 MHz
same,"aiso, component (2) intermediately bound","FABP3; 37 °C, EPR simulation",42.9 MHz
same,"aiso, component (3) strongly bound","FABP3; 37 °C, EPR simulation",41.3 MHz
same,"τc,iso, component (1) free","FABP3; 37 °C, EPR simulation",0.1 ns
same,"τc,iso, component (2) intermediately bound","FABP3; 37 °C, EPR simulation",4.8–4.9 ns
same,"τc,iso, component (3) strongly bound","FABP3; 37 °C, EPR simulation",17.9–19 ns
same,bound molecules at complete saturation,"FABP3; 37 °C, tenfold protein excess, totally bound",100%
same,"rotational correlation time τc, component (1)",FABP3; [4],0.1 ns
same,"rotational correlation time τc, component (3)",FABP3; [4],17.8 ns
same,Hill coefficient n,FABP3; [5],1.898 and > 1
same,Hill fit k,"FABP3; Hill fit, totally bound (T), x = c(FABP3)/c(5/16-DSA)",0.475 ± 0.019
same,Hill fit Vmax,FABP3; [6],98.766 ± 1.7
same,Kd,FABP3; [7],9600 ± 100 nM
same,Kd,"FABP4; 20 μM FABP4, 20 μM spin probe, read-out: KD,T,20μM (calculated, totally bound)",20.8 ± 0.8 µM
same,Kd,"FABP4; 20 μM spin probe, EPR binding curve, read-out: KD,T,75′ (fit), apparent KD read at 75% totally bound",66 ± 0.7 µM
same,Kd,"FABP4; 50 μM FABP4, 20 μM spin probe, read-out: KD,T,50μM (calculated, totally bound)",25.3 ± 1 µM
same,"ΔGF−I,100μM (free to intermediately bound)",FABP4; 100 μM FABP4,-25.9 ± 0.4 kJ/mol
same,"ΔGF−S,100μM (free to strongly bound)",FABP4; 100 μM FABP4,-20.3 ± 0.1 kJ/mol
same,"ΔGF−T,100μM (free to totally bound)",FABP4; 100 μM FABP4,-29.8 ± 1.1 kJ/mol
same,"ΔGI−S,100μM (intermediately to strongly bound)",FABP4; 100 μM FABP4,3.1 ± 0.2 kJ/mol
same,Kd,"FABP4; 100 μM FABP4, 20 μM spin probe, read-out: KD,T,100μM (calculated, totally bound)",9.53 ± 0.53 µM
same,"aiso, component (1) free",FABP4; EPR simulation,44.1 MHz
same,"aiso, component (2) intermediately bound",FABP4; EPR simulation,46.9 MHz
same,"aiso, component (3) strongly bound",FABP4; EPR simulation,43.0 MHz
same,"τc,iso, component (1) free",FABP4; EPR simulation,0.06–0.08 ns
same,"τc,iso, component (2) intermediately bound",FABP4; EPR simulation,4.8 ns
same,"τc,iso, component (3) strongly bound",FABP4; EPR simulation,17.9 ns
same,Hill coefficient n,"FABP4; Hill fit of EPR binding curve, totally bound",> 1
same,Kd,"FABP4; read-out: KD,T,50′ (fit), apparent KD read at 50% totally bound, 20 μM spin probe, EPR binding curve",31.6 ± 0.3 µM
same,Kd,"FABP5 [1]; 37 °C, 20 μM FABP5, 20 μM spin probe, read-out: KD,T,20μM (calculated, totally bound)",2.05 ± 0.5 µM
same,Kd,FABP5 [1]; [3],25 ± 0.3 µM
same,Kd,"FABP5 [1]; 37 °C, 50 μM FABP5, 20 μM spin probe, read-out: KD,T,50μM (calculated, totally bound)",5.82 ± 1.14 µM
same,"ΔGF−I,100μM (free to intermediately bound)","FABP5 [1]; 37 °C, 100 μM FABP5",-25.7 ± 0.2 kJ/mol
same,"ΔGF−S,100μM (free to strongly bound)","FABP5 [1]; 37 °C, 100 μM FABP5",-20.8 ± 0.1 kJ/mol
same,"ΔGF−T,100μM (free to totally bound)","FABP5 [1]; 37 °C, 100 μM FABP5",-30.3 ± 0.8 kJ/mol
same,"ΔGI−S,100μM (intermediately to strongly bound)","FABP5 [1]; 37 °C, 100 μM FABP5",2.6 ± 0.1 kJ/mol
same,Kd,"FABP5 [1]; 37 °C, 100 μM FABP5, 20 μM spin probe, read-out: KD,T,100μM (calculated, totally bound)",7.79 ± 0.37 µM
same,"aiso, component (1) free","FABP5 [1]; 37 °C, EPR simulation",44.1 MHz
same,"aiso, component (2) intermediately bound","FABP5 [1]; 37 °C, EPR simulation",44.9–46.9 MHz
same,"aiso, component (3) strongly bound","FABP5 [1]; 37 °C, EPR simulation",42.3–43.7 MHz
same,"τc,iso, component (1) free","FABP5 [1]; 37 °C, EPR simulation",0.09–0.1 ns
same,"τc,iso, component (2) intermediately bound","FABP5 [1]; 37 °C, EPR simulation",4.8 ns
same,"τc,iso, component (3) strongly bound","FABP5 [1]; 37 °C, EPR simulation",17.9 ns
same,totally bound fraction,"FABP5 [1]; 37 °C, high FABP5 excess",94.8%
same,Hill coefficient n,FABP5 [1]; [5],1.109 ± 0.041 and ≈ 1
same,Hill fit k,"FABP5 [1]; Hill fit, totally bound (T), x = c(FABP5)/c(5/16-DSA)",0.352 ± 0.009
same,Hill fit Vmax,FABP5 [1]; [6],96.295 ± 0.907
same,Kd,FABP5 [1]; [7],6.6 ± 0.1 µM
"CC/C=C\C/C=C\C/C=C\C/C=C\C/C=C\C/C=C\CCC(=O)O [DHA, Cis-4,7,10,13,16,19-Docosahexaenoic acid]",bound 16-DSA with rising DHA content,FABP5 [2],55%
same,displacement of 16-DSA,FABP5 [2],no complete displacement of 16-DSA occurred
